The test system of data set [1] is Staphylococcus aureus. As to the kind of experiment: Induction of bacterial eradication in methicillin-resistant Staphylococcus aureus M11 at 8 times MIC incubated for 8 hrs by time-kill assay. In kind it is functional, organism-based.
Data set [2] concerns Staphylococcus aureus. As to the kind of experiment: Antibacterial activity against methicillin-resistant Staphylococcus aureus M11 infected in BALB/c mouse model of Sepsis assessed as reduction in abscess size on back at 4 mg/kg measured after 24 hrs. The class given is functional, organism-based.
The subject of data set [3] is Staphylococcus aureus. As to the kind of experiment: Antibacterial activity against methicillin-resistant Staphylococcus aureus M11 infected in BALB/c mouse model of Sepsis assessed as reduction in redness in inner epidermal abscesses at 4 mg/kg measured after 24 hrs. The class given is functional, organism-based.
For data set [4], the system named is Staphylococcus aureus. As to the kind of experiment: Antibacterial activity against methicillin-resistant Staphylococcus aureus M11 infected in BALB/c mouse model of Sepsis assessed as reduction in swelling in inner epidermal abscesses at 4 mg/kg measured after 24 hrs. In kind it is functional, organism-based.
Data set [5] deals with Staphylococcus aureus. Kind of data set: Antibacterial activity against methicillin-resistant Staphylococcus aureus M11 infected in BALB/c mouse model of Sepsis assessed as reduction in inflammatory cell infiltration in skin tissues at 4 to 8 mg/kg measured after 24 hrs by H and E staining based analysis. The note with it: dose 4-8 mg/kg. The class given is functional, organism-based.

Data set [6] concerns Staphylococcus aureus. As to the kind of experiment: Antibacterial activity against methicillin-resistant Staphylococcus aureus M11 infected in BALB/c mouse model of Sepsis assessed as reduction in bacterial count in skin tissues at 4 mg/kg measured after 24 hrs relative to control. More on the design: scale not given: the % may be the effect or the level left. The class given is functional.

For data set [7], the system named is Staphylococcus aureus. As to the kind of experiment: Antibacterial activity against methicillin-resistant Staphylococcus aureus M11 infected in BALB/c mouse model of Sepsis assessed as reduction in bacterial count in skin tissues at 8 mg/kg measured after 24 hrs relative to control. Details: scale not given: the % may be the effect or the level left. In kind it is functional.

Data set [8] deals with Staphylococcus aureus. As to the kind of experiment: Antibacterial activity against methicillin-resistant Staphylococcus aureus M11 infected in BALB/c mouse model of Sepsis assessed as reduction in bacterial load in skin tissues at 4 mg/kg measured after 24 hrs. In kind it is functional.
Data set [9] has as its system Staphylococcus aureus. Kind of data set: Antibacterial activity against methicillin-resistant Staphylococcus aureus M11 infected in BALB/c mouse model of Sepsis assessed as reduction in bacterial load in skin tissues at 8 mg/kg measured after 24 hrs. The class given is functional.
For data set [10], the system named is Staphylococcus aureus. As to the kind of experiment: Antibacterial activity against methicillin-resistant Staphylococcus aureus M11 infected in BALB/c mouse model of Sepsis assessed as vacuolar degeneration in liver cells at 10 mg/kg, ip measured after 48 hrs. The class given is functional, organism-based.
The subject of data set [11] is Staphylococcus aureus. As to the kind of experiment: Antibacterial activity against methicillin-resistant Staphylococcus aureus M11 infected in BALB/c mouse model of Sepsis assessed as reduction in hepatic sinusoidal dilation at 10 mg/kg, ip measured after 48 hrs. The class given is functional, organism-based.
Data set [12] has as its system Staphylococcus aureus. As to the kind of experiment: Antibacterial activity against methicillin-resistant Staphylococcus aureus M11 infected in BALB/c mouse model of Sepsis assessed as reduction in hepatic congestion at 10 mg/kg, ip measured after 48 hrs. In kind it is functional, organism-based.
Data set [13] concerns Staphylococcus aureus. As to the kind of experiment: Antibacterial activity against methicillin-resistant Staphylococcus aureus M11 infected in BALB/c mouse model of Sepsis assessed as reduction in bacterial load in liver at 20 mg/kg, ip measured after 48 hrs. The class given is functional.
For data set [14], the system named is Staphylococcus aureus. Kind of data set: Antibacterial activity against methicillin-resistant Staphylococcus aureus M11 infected in BALB/c mouse model of Sepsis assessed as reduction in bacterial load in spleen at 20 mg/kg, ip measured after 48 hrs. In kind it is functional.
The subject of data set [15] is Staphylococcus aureus. As to the kind of experiment: Antibacterial activity against methicillin-resistant Staphylococcus aureus M11 infected in BALB/c mouse model of Sepsis assessed as reduction in bacterial load in kidney at 20 mg/kg, ip measured after 48 hrs. In kind it is functional.
Data set [16] can be described thus: Toxicity in BALB/c mouse model of Sepsis infected with methicillin-resistant Staphylococcus aureus M11 assessed as survival rate at 10 mg/kg, ip measured after 7 days. As to conditions: in vivo, 168 h, time 7 day. The class given is organism-based.
Data set [17] in a line: Toxicity in BALB/c mouse model of Sepsis infected with methicillin-resistant Staphylococcus aureus M11 assessed as survival rate at 5 mg/kg, ip measured after 7 days. The class given is organism-based. As to conditions: in vivo, 168 h, time 7 day.
Data set [18] is described as follows: Toxicity in BALB/c mouse model of Sepsis infected with methicillin-resistant Staphylococcus aureus M11 assessed as survival rate at 15 mg/kg, ip measured after 7 days. In kind it is organism-based. The note with it: in vivo, 168 h, time 7 day.

Our source for the Activity and Survival values is ChEMBL document CHEMBL6109153, “Development of Membrane-Targeting Osthole Derivatives Containing Pyridinium Quaternary Ammonium Moieties with Potent Anti-Methicillin-Resistant Staphylococcus aureus Properties” (J Med Chem, 2025).

Active and inactive are the calls of the source. The calls are words filed in the database; no cut-off is given here.

On to `CN[C@H](CC(C)C)C(=O)N[C@H]1C(=O)N[C@@H](CC(N)=O)C(=O)N[C@H]2C(=O)N[C@H]3C(=O)N[C@H](C(=O)N[C@H](C(=O)O)c4cc(O)cc(O)c4-c4cc3ccc4O)[C@H](O)c3ccc(c(Cl)c3)Oc3cc2cc(c3O[C@@H]2O[C@H](CO)[C@@H](O)[C@H](O)[C@H]2O[C@H]2C[C@](C)(N)[C@H](O)[C@H](C)O2)Oc2ccc(cc2Cl)[C@H]1O` [VANCOMYCIN], for which the Activity entry was “Not active; Compound Inhibited Bacterial Growth But Still Showed Surviving Bacteria Within The Detection Range After 8 H, Indicating Incomplete Bacterial Eradication” in the data set with Staphylococcus aureus [1]; 97.24% in the data set on Staphylococcus aureus [6]; 99.989% with Staphylococcus aureus [7]; 1.578 log10CFU/g in the data set on Staphylococcus aureus [8]; 3.96 log10CFU/g in the data set on Staphylococcus aureus [9]; 3.54 log10CFU/ml in the data set on Staphylococcus aureus [13]. Further, the values for the Activity in the data set on Staphylococcus aureus [14] and in the data set with Staphylococcus aureus [15] were 3.88 log10CFU/ml and 3.92 log10CFU/ml, respectively. Also, the result in the data set with Staphylococcus aureus [2], with Staphylococcus aureus [3], with Staphylococcus aureus [4], in the data set with Staphylococcus aureus [5] and with Staphylococcus aureus [10] was Active. Also, the result in the data set with Staphylococcus aureus [11] and in the data set on Staphylococcus aureus [12] was inactive. The Survival in [16] stood at 77.8%; in [17] it was 33.3%; in data set [18] it was 100%.
